Results from patent US10925876B2, “Methods for using triazolo-pyrazinyl soluble guanylate cyclase activators in fibrotic disorders” (Merck Sharp & Dohme Corp., priority 2016, dated 2021).

Key:
[1] = test system: Spontaneously hypertensive rats (SHR); assay: Acute Efficacy in Spontaneously Hypertensive Rats (SHR), telemetry blood pressure; assay type: in vivo, rat; settings: single oral gavage
Text: Spontaneously hypertensive rats (SHR, male, Charles River) were implanted with DSI TA11PA-C40 telemetry device (Data Sciences, Inc., St. Paul, Minn.) under isoflurane or ketamine/metomidine anesthesia. The telemetry unit catheter was inserted into the descending aorta via the femoral artery and the telemetry device was implanted subcutaneously in the left flank area. Animals were allowed to recover from surgery for 14 days before the start of any studies. Blood pressure, heart rate, and activity signals from conscious, freely moving rats were recorded continuously for 30 seconds every 10 minutes. On the day prior to administration of compound, a single oral dose of vehicle (10% transcutol/20% Cremophor/70% water) was administered to all animals to establish baseline control data. The blood pressure lowering efficacy of compound (PO) or vehicle was evaluated following a single oral gavage. Data were collected as hourly averages, and changes in blood pressure were calculated by subtracting control baseline data on an hourly basis. Animals were maintained on normal diet with a 12 hour light-dark cycle.
Maximum peak decreases of systolic blood pressure (SBP) in SHR at a particular P.O. dose (mpk milligrams per kilogram) for the following representative compounds are provided. Category A=SBP in SHRs <20 mmHg; Category B=SBP in SHRs 20-40 mmHg; Category C=SBP in SHRs >40 mmHg.

[2] = biological target: T1, sGC α1/β1 heterodimer (Homo sapiens, UniProt Q02108+Q02153); assay: Cell-Based sGC Functional Assay (CASA Assay), cGMP generation in CHO-K1/sGC cells;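 further: reference Compound A is a published heme-dependent sGC activator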; settings: maximum cGMP production of Compound A set to 100% activation, read-out: % Act. (percent activation relative to Compound A)
T1 construct: expressed in transfected cells
T1 sequence (Q02108 1-690): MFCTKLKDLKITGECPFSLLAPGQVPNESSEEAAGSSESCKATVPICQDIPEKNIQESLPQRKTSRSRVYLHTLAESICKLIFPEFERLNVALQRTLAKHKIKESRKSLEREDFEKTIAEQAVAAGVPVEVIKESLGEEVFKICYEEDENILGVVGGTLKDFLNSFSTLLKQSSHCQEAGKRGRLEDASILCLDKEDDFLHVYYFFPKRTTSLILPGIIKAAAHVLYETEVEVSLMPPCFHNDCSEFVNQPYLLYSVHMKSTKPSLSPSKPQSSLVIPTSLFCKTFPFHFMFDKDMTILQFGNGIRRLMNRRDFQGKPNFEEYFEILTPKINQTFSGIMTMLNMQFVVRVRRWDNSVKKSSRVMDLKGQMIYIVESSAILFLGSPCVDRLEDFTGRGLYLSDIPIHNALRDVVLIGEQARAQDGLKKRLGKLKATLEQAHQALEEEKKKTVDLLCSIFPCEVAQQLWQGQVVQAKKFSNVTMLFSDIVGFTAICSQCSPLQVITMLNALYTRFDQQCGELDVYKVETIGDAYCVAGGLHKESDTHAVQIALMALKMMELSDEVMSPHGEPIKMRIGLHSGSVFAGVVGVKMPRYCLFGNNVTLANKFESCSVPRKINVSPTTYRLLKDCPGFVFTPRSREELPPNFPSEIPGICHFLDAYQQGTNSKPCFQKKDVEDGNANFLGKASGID
T1 sequence (Q02153 1-619): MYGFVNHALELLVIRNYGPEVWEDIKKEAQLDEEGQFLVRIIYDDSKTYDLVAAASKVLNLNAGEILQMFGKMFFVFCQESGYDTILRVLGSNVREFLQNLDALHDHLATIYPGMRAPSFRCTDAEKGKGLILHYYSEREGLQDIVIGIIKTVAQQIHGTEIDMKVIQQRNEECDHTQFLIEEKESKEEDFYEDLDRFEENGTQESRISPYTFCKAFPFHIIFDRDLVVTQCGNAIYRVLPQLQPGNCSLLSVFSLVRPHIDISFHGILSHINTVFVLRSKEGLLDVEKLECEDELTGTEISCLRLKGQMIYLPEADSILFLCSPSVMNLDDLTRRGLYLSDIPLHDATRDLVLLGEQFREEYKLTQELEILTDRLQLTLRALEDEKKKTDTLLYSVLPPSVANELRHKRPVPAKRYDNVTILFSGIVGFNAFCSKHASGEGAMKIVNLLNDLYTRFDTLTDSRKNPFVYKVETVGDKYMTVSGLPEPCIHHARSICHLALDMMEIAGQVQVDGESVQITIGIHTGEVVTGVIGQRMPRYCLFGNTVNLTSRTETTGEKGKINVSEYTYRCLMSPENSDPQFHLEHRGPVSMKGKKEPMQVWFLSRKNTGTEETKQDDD
How it was run: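 Intracellular cGMP quantified by HTRF competition after 1 h, 37 °C compound exposure, with or without 1 μM DETA-NO, in stable CHO-K1/sGC α1/β1 cells (4×10^5/mL; buffer with 0.5 mM IBMX, 5 mM MgCl2, 10 mM HEPES, 0.05% BSA; 2.5% DMSO). Activation normalized to reference Compound A maximum; 4P fit.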

SMILES | Maximum peak decrease of systolic blood pressure (SBP) in SHR, Cat. ([1]; P.O. 0.3 mpk) | Emax [2] [%] | Maximum peak decrease of systolic blood pressure (SBP) in SHR, Cat. ([1]; P.O. 3 mpk) | Maximum peak decrease of systolic blood pressure (SBP) in SHR, Cat. ([1]; P.O. 1 mpk) | Maximum peak decrease of systolic blood pressure (SBP) in SHR, Cat. ([1]; P.O. 0.1 mpk)
CCCCc1nc(-c2nc(N)c3c(n2)NC(=O)C3(C)c2ccc(C(F)(F)F)cn2)cn2ncnc12 (stereo not drawn) [Example 67B, 4-amino-2-(8-butyl-[1,2,4]triazolo[1,5-a]pyrazin-6-yl)-5-methyl-5-(5-(trifluoromethyl)pyridin-2-yl)-5H-pyrrolo[2,3-d]pyrimidin-6(7H)-one] | B (Category B=SBP in SHRs 20-40 mmHg) | 119 |  |  | 
Nc1nc(-c2cn3ncnc3c(CCCC(F)(F)F)n2)nc2c1C(c1nnc(C3CC3)o1)(C1CC1)C(=O)N2 (stereo not drawn) [Example 104A, 4-amino-5-cyclopropyl-5-(5-cyclopropyl-1,3,4-oxadiazol-2-yl)-2-(8-(4,4,4-trifluorobutyl)-[1,2,4]triazolo[1,5-a]pyrazin-6-yl)-5H-pyrrolo[2,3-d]pyrimidin-6(7H)-one] |  | 117 | C (Category C=SBP in SHRs >40 mmHg) |  | 
CC1(c2ccc(Cl)cn2)C(=O)Nc2nc(-c3cn4ncnc4c(CCCC(F)(F)F)n3)nc(O)c21 (stereo not drawn) [Example 134A, 5-(5-chloropyridin-2-yl)-4-hydroxy-5-methyl-2-(8-(4,4,4-trifluorobutyl)-[1,2,4]triazolo[1,5-a]pyrazin-6-yl)-5H-pyrrolo[2,3-d]pyrimidin-6(7H)-one] |  | 134 |  | B (Category B=SBP in SHRs 20-40 mmHg) | 
Nc1nc(-c2cn3ncnc3c(CCCC(F)(F)F)n2)nc2c1C(c1ccc(C(F)F)cn1)(C1CC1)C(=O)N2 (racemic) [Example 44B, 4-amino-5-cyclopropyl-5-(5-(difluoromethyl)pyridin-2-yl)-2-(8-(4,4,4-trifluorobutyl)-[1,2,4]triazolo[1,5-a]pyrazin-6-yl)-5H-pyrrolo[2,3-d]pyrimidin-6(7H)-one] |  | 120 |  | B (Category B=SBP in SHRs 20-40 mmHg) | 
CC1(c2cn(C3CC3)nn2)C(=O)Nc2nc(-c3cn4ncnc4c(CCC(F)(F)C(F)(F)F)n3)nc(N)c21 (stereo not drawn) [Example 95B, 4-Amino-5-(1-cyclopropyl-1H-1,2,3-triazol-4-yl)-5-methyl-2-(8-(3,3,4,4,4-pentafluorobutyl)-[1,2,4]triazolo[1,5-a]pyrazin-6-yl)-5H-pyrrolo[2,3-d]pyrimidin-6(7H)-one] | C (Category C=SBP in SHRs >40 mmHg) | 74 |  |  | 
CC1(c2ccccc2)C(=O)Nc2nc(-c3cn4ncnc4c(CCC(F)(F)C(F)(F)F)n3)nc(N)c21 (stereo not drawn) [Example 12B, 4-amino-5-methyl-2-(8-(3,3,4,4,4-pentafluorobutyl)-[1,2,4]triazolo[1,5-a]pyrazin-6-yl)-5-phenyl-5H-pyrrolo[2,3-d]pyrimidin-6(7H)-one] |  | 122 |  |  | B (Category B=SBP in SHRs 20-40 mmHg)
CCCCc1nc(-c2nc(N)c3c(n2)NC(=O)[C@@]3(C)c2ccc(F)cc2)cn2ncnc12 [Example 60A, (S)-4-amino-2-(8-butyl-[1,2,4]triazolo[1,5-a]pyrazin-6-yl)-5-(4-fluorophenyl)-5-methyl-5,7-dihydro-6H-pyrrolo[2,3-d]pyrimidin-6-one] | C (Category C=SBP in SHRs >40 mmHg) | 121 |  |  | 
CC1(c2ccc(O)cn2)C(=O)Nc2nc(-c3cn4ncnc4c(CCC(F)(F)C(F)(F)F)n3)nc(N)c21 (stereo not drawn) [Example 110A, 4-Amino-5-(5-hydroxypyridin-2-yl)-5-methyl-2-(8-(3,3,4,4,4-pentafluorobutyl)-[1,2,4]triazolo[1,5-a]pyrazin-6-yl)-5,7-dihydro-6H-pyrrolo[2,3-d]pyrimidin-6-one] |  | 70 | B (Category B=SBP in SHRs 20-40 mmHg) |  | 
Nc1nc(-c2cn3ncnc3c(CCC(F)(F)C(F)(F)F)n2)nc2c1C(c1cncc(F)c1)(C1CC1)C(=O)N2 (stereo not drawn) [Example 8B, 4-amino-5-cyclopropyl-5-(5-fluoropyridin-3-yl)-2-(8-(3,3,4,4,4-pentafluorobutyl)-[1,2,4]triazolo[1,5-a]pyrazin-6-yl)-5H-pyrrolo[2,3-d]pyrimidin-6(7H)-one] |  | 177 | B (Category B=SBP in SHRs 20-40 mmHg) |  | 
